Consider five compounds from patent publication US20200253888A1, “USE OF BIOMARKERS ASSOCIATED WITH LINE-1” (THE ARIZONA BOARD OF REGENTS ON BEHALF OF THE UNIVERSITY OF …, priority 2016, published 2020).

In one series the test system is AhR. The series is described as follows: AhR knockdown by siRNA in HepG2 cells (immunoblot). It is filed as cell-based, human. The following applies: HepG2, siRNA transfection. The procedure:
FIG. 3 is experimental results showing B[a]P induces the TG-β1 mRNA expression through of its receptor AhR in HepG2 cells. A) Cell were treated with 1.5 μM B[a]P or an equivalent DMSO concentration (0.5%) for different periods of times. B) Cells were transfected without siRNA (mock), with AhR target-specific siRNAs, or with a control siRNA (scramble), then treated with 1.5 μM B[a]P or DMSO for 48 h. Total RNA was isolated, and 1 μg of RNA was subjected to cDNA synthesis. Samples were analyzed via RT-PCR using human specific primers for TGF-μ1 and GAPDH. C) Some transfected cells were lysed and the whole cell lysates was analyzed by immunoblotting for AhR or GAPDH antibodies (loading control) to confirm target knockdown.
Immunoblotting: Total cell lysates were resolved by SDS-Tris PAGE and then electrotransferred onto polyvinylidine fluoride membranes (Thermo Fisher Scientific) in Tris-glycine buffer containing 20% methanol. Proteins were detected by immunoblotting. Where indicated, membranes were stripped of bound antibodies using 62.5 mmol/L Tris-HCl (pH 6.7), 100 mmol/L 2-mercaptoethanol, and 2% SDS for 30 minutes at 60° C. and then reprobed as described in figure legends.
(§1) RNA interference: Small interfering RNA (siRNA) duplexes sequences were chemically synthesized and annealed by Thermo Fisher Scientific. […]

The test system of series [1] is phospho-Smad2, E-Cadherin, N-Cadherin, vimentin. The series is described as follows: Activation of the TGF-β1 signaling pathway by B[a]P in HepG2 cells (immunoblotting). The class given is cell-based, human. The following applies: data not shown. How it is done:
FIG. 4 is experimental results showing B[a]P induces the activation of the TGF-β1 signaling pathway in HepG2 cells. Cells were stimulated for different periods of times by replacing cell media for supplemented fresh media containing 1.5 μM B[a]P or an equivalent DMSO concentration (0.5%). Whole cell lysates were analyzed by immunoblotting for phospho-Smad2, total Smad2, E-Cadherin, N-Cadherin, and GAPDH (loading control).
(§2) Cell culture and treatments: HepG2 hepatocellular carcinoma cell line was purchased from the American Type Culture Collection (ATCC). Cells were grown in RPMI medium supplemented with 10% fetal bovine serum (FBS, Thermo Fisher Scientific, Grand Island, N.Y.) supplemented with 62.5 μg/mL penicillin and 100 μg/mL streptomycin (Thermo Fisher Scientific) in a humidified incubator at 37° C. with 5% CO2. HepG2 cells were pleated on day before treatment. Cells were between 40-50% confluent at the treatment time. […] All protein concentrations were determined using the bicinchoninic acid assay (Thermo Fisher Scientific).
Immunoblotting: Total cell lysates were resolved by SDS-Tris PAGE and then electrotransferred onto polyvinylidine fluoride membranes (Thermo Fisher Scientific) in Tris-glycine buffer containing 20% methanol. Proteins were detected by immunoblotting. […]

Another series relates to L1. The settings on record: HeLa, HMEM, vSMC and mK4 cell lines; previously shown (ref. 33); cited from earlier work.
The test system of a further series is L1 mRNA (ORF1 and ORF2). The experiment in a line: B[a]P-induced L1 mRNA expression after siRNA transfection in HepG2 cells (qRT-PCR). The class given is cell-based, human. How it is done:
FIG. 5 is experimental results showing B[a]P-mediated L1 mRNA expression requires TGFR1, Smad2 and smad3 in HepG2 cells. Cells were transfected without siRNA (mock), with target-specific siRNAs for Smad2, Smad3, TGFBR1, or with a control siRNA (scramble), then treated with 1.5 μM B[a]P or DMSO for 48 h. Total RNA was isolated, and 1 μg of RNA was subjected to cDNA synthesis. Samples were analyzed via RT-PCR using human specific primers for L1 (ORF1 and ORF2) and GAPDH. C) Some transfected cells were lysed and the whole cell lysates was analyzed by immunoblotting for TGFBR1, Smad2/3 or GAPDH antibodies (loading control) to confirm target knockdown.
RT-PCR: Total RNA was isolated from cells using the RNeasy Plus Kit (Qiagen) and 2 μg RNA was digested with TurboDNase-I (Thermo Fisher Scientific). A total DNAse digested RNA (1 μg) was employed for cDNA synthesis using high-capacity cDNA reverse transcription Kit (Thermo Fisher Scientific). The resulting cDNAs (50 ng) were used as templates for qRT-PCR to analyze the mRNA expression using Power SYBR® Green PCR Master Mix and primers for L1-ORF-1, L1-ORF-2, TGF-β1 and GAPDH. The fold changes were determined by comparing the ACT value of each product normalized to GAPDH as an internal control.
as §1

Series [2] deals with L1 mRNAs (ORF-1 and ORF-2). The experiment in a line: TGF-β1-induced L1 mRNA expression in HepG2 cells (qRT-PCR). The class given is cell-based, human. How it is done: FIG. 1 is experimental results showing TGF-β1 induces the L1 mRNA expression in HepG2 cells. HepG2 were stimulated for different times by adding serum-free media with or without (untreated) 10 ng/ml TGF-β1. Total RNA was isolated, and 1 μg of RNA was subjected to cDNA synthesis. Samples were analyzed via RT-PCR using specific primers for human L1 (ORF-1 and ORF-2) and GAPDH. Expression relative to untreated cells.
as §2
RT-PCR: Total RNA was isolated from cells using the RNeasy Plus Kit (Qiagen) and 2 μg RNA was digested with TurboDNase-I (Thermo Fisher Scientific). […] The fold changes were determined by comparing the ACT value of each product normalized to GAPDH as an internal control. […]

Series [3] deals with L1 proteins (ORF1p and ORF2p). The experiment in a line: TGF-β1-mediated L1 expression in BEAS-2B lung cells with or without juglone (immunoblotting). The class given is cell-based. The following applies: BEAS-2B cells, 10 ng/ml TGF-β1, immunoblotting. The procedure: In the experiments, non-malignant BEAS-2B lung cells were untreated or treated with 10 ng/ml TGF-β1 and co-treated with 1 μM juglone or ethanol and whole lyses were analyzed by immunoblotting for L1 proteins (ORF1p and ORF2p), vimentin, DNMT1 and GAPDH (loading control).

For the compound “AhR siRNA: siRNA duplex for AhR (ID#s1200), SEQ ID NO: 9 and 10 (chain 1 CGGAUGAAAUCCUGACGUATT; chain 2 UACGUCAGGAUUUCAUCAGTT; chemistry not given here)”, in the series with AhR, the “reduction in AhR levels compared with controls” value is on record as greater than 90%.

On to `c1ccc2c(c1)cc1ccc3cccc4ccc2c1c34` [B[a]P, Benzo[a]pyrene], for which the expression of vimentin entry in series [1] is “not induced”. Besides, the “transcriptional expression of L1” value with L1 was “reactivates transcriptional expression of L1”.

For the compound “Smad3 siRNA: siRNA duplex for Smad3 (ID#107877), SEQ ID NO: 15 and 16 (chain 1 GGCCCAGUGCAUAUGCAAUTT; chain 2 AUUGCAUAUGCACUGGGCCTC; chemistry not given here)”, the “baseline L1 mRNA expression after knockdown” value in the series on L1 mRNA (ORF1 and ORF2) was “slight reduction”. Turning to “Smad2 siRNA: siRNA duplex for Smad2 (ID#115715), SEQ ID NO: 13 and 14 (chain 1 GCUUCUCUGAACAAACCAGTT; chain 2 CUGGUUUGUUCAGAGAAGCTG; chemistry not given here)”, the “baseline L1 mRNA expression after knockdown” value in the series on L1 mRNA (ORF1 and ORF2) is “slight reduction”.

For the compound “TGF-β1: Recombinant human TGF-β1 purchased from R&D Systems”, the “time of maximal peak induction of L1 mRNAs” value in series [2] (HepG2, 10 ng/ml TGF-β1, time course 4 h-24 h) is 8 h. Moreover, the “expression levels of L-1 mRNAs (ORF-1 and ORF-2)” value in series [2] (HepG2, 10 ng/ml TGF-β1 in serum-free media, after 8 h to 24 h treatment, relative to untreated cells) is listed as “induced an evident increase”. Besides, the “expression of L1” value in series [3] is “induces the expression of L1”.
